Assay results reported in the supplement of paper PMC6045584.
± gives the standard deviation of the averaged measurements.

Legend:
[1] = compound: T1, C=CC(=O)Nc1cc2c(Nc3ccc(F)c(Cl)c3)ncnc2cc1OCCCN1CCOCC1 [CANERTINIB]; assay: surviving fraction relative to DMSO-only wells; higher = less growth inhibition; conditions: exposure time: 5 days
Method in brief: (§1)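 Viability was determined by CellTiter-Glo luminescence, expressed as surviving fraction normalised to the median of DMSO-only wells. The cells were log-phase tumour cell lines seeded at 250–500 per well in 384-well plates and, after 24 hours, exposed continuously for five days to inhibitors at 0.5, 1, 5, 10, 50, 100, 500 and 1000 nM. Three screens per line were run, keeping only lines with replicate Pearson r >0.7 and median Z' >0.3.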

[2] = compound: T2, CC1(C)CC(=O)c2c(C(F)(F)F)nn(-c3ccc(C(N)=O)c(N[C@H]4CC[C@H](OC(=O)CN)CC4)c3)c2C1 [SNX-5422]; assay: as above; conditions: exposure time: 5 days
Method in brief: as §1

[3] = compound: T3, CCCCCCCCCCCCCCCC(=O)Nc1ccn([C@@H]2O[C@H](CO)[C@@H](O)[C@@H]2C#N)c(=O)n1 [SAPACITABINE]; assay: as above; conditions: exposure time: 5 days
Method in brief: as §1

[4] = compound: T4, CC[C@@H]1C(=O)N(C)c2cnc(Nc3ccc(C(=O)NC4CCN(C)CC4)cc3OC)nc2N1C1CCCC1 [BI-2536]; assay: as above; conditions: exposure time: 5 days
Method in brief: as §1

[5] = compound: T5, CN(C)C/C=C/C(=O)Nc1cc2c(Nc3ccc(F)c(Cl)c3)ncnc2cc1O[C@H]1CCOC1 [AFATINIB]; assay: as above; conditions: exposure time: 5 days
Method in brief: as §1

[6] = compound: CNC(=O)c1ccc(N2C(=S)N(c3ccc(C#N)c(C(F)(F)F)c3)C(=O)C2(C)C)cc1F [MDV3100]; assay: as above; conditions: exposure time: 5 days
Method in brief: as §1

[7] = compound: Cn1cc(C2=Nc3cc(NC(=O)C(N)C4CCCCC4)cc4c3C2=CNNC4=O)cn1; assay: as above; conditions: exposure time: 5 days
Method in brief: as §1

[8] = compound: T6, Nc1nc2[nH]cnc2c(=S)[nH]1 [TIOGUANINE]; assay: as above; conditions: exposure time: 5 days
Method in brief: as §1

[9] = compound: T1, CANERTINIB; assay: area under dose-response curve of surviving fraction (unscaled, Aref=0) (surviving fraction x log10(nM)); higher = more resistant; conditions: exposure time: 5 days; dose range 0.5-1000 nM
Method in brief: (§2)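 Inhibitor was applied to tumour cell lines at eight concentrations (0.5 to 1000 nM) for five days in 384-well plates. Luminescence from CellTiter-Glo, scaled to DMSO-only wells, gave surviving fractions in three screens per line, and these were fitted by 3-parameter logistic regression with the drc R package. The area under the curve is an unscaled activity area. Aref was 0, and dose was on a log10 scale.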

[10] = compound: T2, SNX-5422; assay: as above; conditions: exposure time: 5 days; dose range 0.5-1000 nM
Method in brief: as §2

[11] = compound: T3, SAPACITABINE; assay: as above; conditions: exposure time: 5 days; dose range 0.5-1000 nM
Method in brief: as §2

[12] = compound: T4, BI-2536; assay: as above; conditions: exposure time: 5 days; dose range 0.5-1000 nM
Method in brief: as §2

[13] = compound: T5, AFATINIB; assay: as above; conditions: exposure time: 5 days; dose range 0.5-1000 nM
Method in brief: as §2

[14] = compound: Cn1cc(C2=Nc3cc(NC(=O)C(N)C4CCCCC4)cc4c3C2=CNNC4=O)cn1; assay: as above; conditions: exposure time: 5 days; dose range 0.5-1000 nM
Method in brief: as §2

[15] = compound: T6, TIOGUANINE; assay: as above; conditions: exposure time: 5 days; dose range 0.5-1000 nM
Method in brief: as §2

HU09 BONE
surviving fraction ([1]; 0.5 nM): 0.807 ± 0.14 | surviving fraction ([1]; 1 nM): 0.891 ± 0.066 | surviving fraction ([1]; 5 nM): 0.977 ± 0.058 | surviving fraction ([1]; 10 nM): 0.904 ± 0.079 | surviving fraction ([1]; 50 nM): 1.02 ± 0.086 | surviving fraction ([1]; 100 nM): 1.02 ± 0.081 | surviving fraction ([1]; 500 nM): 0.766 ± 0.033 | surviving fraction ([1]; 1000 nM): 0.478 ± 0.027 | surviving fraction ([2]; 0.5 nM): 1.02 ± 0.032 | surviving fraction ([2]; 1 nM): 0.991 ± 0.095 | surviving fraction ([2]; 5 nM): 1.03 ± 0.15 | surviving fraction ([2]; 10 nM): 0.701 ± 0.017 | surviving fraction ([2]; 50 nM): 0.0323 ± 0.0029 | surviving fraction ([2]; 100 nM): 0.023 ± 0.0017 | surviving fraction ([2]; 500 nM): 0.0257 ± 0.0021 | surviving fraction ([2]; 1000 nM): 0.03 ± 0.002 | surviving fraction ([3]; 0.5 nM): 0.854 ± 0.062 | surviving fraction ([3]; 1 nM): 0.812 ± 0.027 | surviving fraction ([3]; 5 nM): 0.97 ± 0.061 | surviving fraction ([3]; 10 nM): 0.882 ± 0.018 | surviving fraction ([3]; 50 nM): 0.857 ± 0.021 | surviving fraction ([3]; 100 nM): 0.537 ± 0.042 | surviving fraction ([3]; 500 nM): 0.0813 ± 0.0049 | surviving fraction ([3]; 1000 nM): 0.0557 ± 0.0035 | surviving fraction ([4]; 0.5 nM): 1.03 ± 0.049 | surviving fraction ([4]; 1 nM): 0.939 ± 0.14 | surviving fraction ([4]; 5 nM): 0.066 ± 0.0044 | surviving fraction ([4]; 10 nM): 0.0487 ± 0.0047 | surviving fraction ([4]; 50 nM): 0.086 ± 0.033 | surviving fraction ([4]; 100 nM): 0.076 ± 0.017 | surviving fraction ([4]; 500 nM): 0.0617 ± 0.0081 | surviving fraction ([4]; 1000 nM): 0.0403 ± 0.0032 | surviving fraction ([5]; 0.5 nM): 1.08 ± 0.085 | surviving fraction ([5]; 1 nM): 1.02 ± 0.1 | surviving fraction ([5]; 5 nM): 1.16 ± 0.074 | surviving fraction ([5]; 10 nM): 1.14 ± 0.087 | surviving fraction ([5]; 50 nM): 1.12 ± 0.067 | surviving fraction ([5]; 100 nM): 1.06 ± 0.15 | surviving fraction ([5]; 500 nM): 0.6 ± 0.049 | surviving fraction ([5]; 1000 nM): 0.231 ± 0.012 | surviving fraction ([6]; 0.5 nM): 0.984 ± 0.077 | surviving fraction ([6]; 1 nM): 1.03 ± 0.11 | surviving fraction ([6]; 5 nM): 1.05 ± 0.071 | surviving fraction ([6]; 10 nM): 1.12 ± 0.18 | surviving fraction ([6]; 50 nM): 1 ± 0.055 | surviving fraction ([6]; 100 nM): 1.04 ± 0.057 | surviving fraction ([6]; 500 nM): 0.952 ± 0.053 | surviving fraction ([6]; 1000 nM): 0.954 ± 0.018 | surviving fraction ([7]; 0.5 nM): 0.977 ± 0.039 | surviving fraction ([7]; 1 nM): 1.02 ± 0.062 | surviving fraction ([7]; 5 nM): 1.02 ± 0.058 | surviving fraction ([7]; 10 nM): 0.975 ± 0.015 | surviving fraction ([7]; 50 nM): 0.6343 ± 0.0057 | surviving fraction ([7]; 100 nM): 0.372 ± 0.033 | surviving fraction ([7]; 500 nM): 0.073 ± 0.0061 | surviving fraction ([7]; 1000 nM): 0.0617 ± 0.011 | surviving fraction ([8]; 0.5 nM): 0.964 ± 0.059 | surviving fraction ([8]; 1 nM): 1.05 ± 0.071 | surviving fraction ([8]; 5 nM): 1.05 ± 0.041 | surviving fraction ([8]; 10 nM): 1.1 ± 0.074 | surviving fraction ([8]; 50 nM): 1.04 ± 0.062 | surviving fraction ([8]; 100 nM): 1.09 ± 0.089 | surviving fraction ([8]; 500 nM): 1.06 ± 0.015 | surviving fraction ([8]; 1000 nM): 0.927 ± 0.11 | area under dose-response curve [9]: 3.15 | area under dose-response curve [10]: 1.39 | area under dose-response curve [11]: 2.37 | area under dose-response curve [12]: 0.614 | area under dose-response curve [13]: 3.05 | area under dose-response curve [14]: 2.19 | area under dose-response curve [15]: 3.42

HCC202 BREAST
surviving fraction ([1]; 0.5 nM): 0.939 ± 0.12 | surviving fraction ([1]; 1 nM): 0.93 ± 0.18 | surviving fraction ([1]; 5 nM): 0.867 ± 0.21 | surviving fraction ([1]; 10 nM): 0.682 ± 0.011 | surviving fraction ([1]; 50 nM): 0.602 ± 0.19 | surviving fraction ([1]; 100 nM): 0.494 ± 0.053 | surviving fraction ([1]; 500 nM): 0.333 ± 0.057 | surviving fraction ([1]; 1000 nM): 0.177 ± 0.051 | surviving fraction ([2]; 0.5 nM): 1.37 ± 0.51 | surviving fraction ([2]; 1 nM): 0.842 ± 0.83 | surviving fraction ([2]; 5 nM): 0.874 ± 0.71 | surviving fraction ([2]; 10 nM): 1.11 ± 0.68 | surviving fraction ([2]; 50 nM): 0.514 ± 0.12 | surviving fraction ([2]; 100 nM): 0.534 ± 0.12 | surviving fraction ([2]; 500 nM): 0.218 ± 0.053 | surviving fraction ([2]; 1000 nM): 0.186 ± 0.043 | surviving fraction ([3]; 0.5 nM): 0.86 ± 0.17 | surviving fraction ([3]; 1 nM): 0.93 ± 0.091 | surviving fraction ([3]; 5 nM): 1.04 ± 0.38 | surviving fraction ([3]; 10 nM): 0.761 ± 0.21 | surviving fraction ([3]; 50 nM): 1.08 ± 0.37 | surviving fraction ([3]; 100 nM): 0.904 ± 0.0085 | surviving fraction ([3]; 500 nM): 0.911 ± 0.15 | surviving fraction ([3]; 1000 nM): 0.851 ± 0.048 | surviving fraction ([4]; 0.5 nM): 0.938 ± 0.18 | surviving fraction ([4]; 1 nM): 0.952 ± 0.097 | surviving fraction ([4]; 5 nM): 0.421 ± 0.034 | surviving fraction ([4]; 10 nM): 0.345 ± 0.037 | surviving fraction ([4]; 50 nM): 0.538 ± 0.033 | surviving fraction ([4]; 100 nM): 0.502 ± 0.12 | surviving fraction ([4]; 500 nM): 0.379 ± 0.044 | surviving fraction ([4]; 1000 nM): 0.306 ± 0.062 | surviving fraction ([5]; 0.5 nM): 1.12 ± 0.36 | surviving fraction ([5]; 1 nM): 0.943 ± 0.36 | surviving fraction ([5]; 5 nM): 0.561 ± 0.2 | surviving fraction ([5]; 10 nM): 0.442 ± 0.098 | surviving fraction ([5]; 50 nM): 0.253 ± 0.07 | surviving fraction ([5]; 100 nM): 0.191 ± 0.048 | surviving fraction ([5]; 500 nM): 0.0983 ± 0.031 | surviving fraction ([5]; 1000 nM): 0.0747 ± 0.0055 | surviving fraction ([6]; 0.5 nM): 0.968 ± 0.098 | surviving fraction ([6]; 1 nM): 0.983 ± 0.18 | surviving fraction ([6]; 5 nM): 0.865 ± 0.21 | surviving fraction ([6]; 10 nM): 0.97 ± 0.34 | surviving fraction ([6]; 50 nM): 1.1 ± 0.043 | surviving fraction ([6]; 100 nM): 0.86 ± 0.12 | surviving fraction ([6]; 500 nM): 0.999 ± 0.25 | surviving fraction ([6]; 1000 nM): 0.623 ± 0.085 | surviving fraction ([7]; 0.5 nM): 0.89 ± 0.18 | surviving fraction ([7]; 1 nM): 0.775 ± 0.22 | surviving fraction ([7]; 5 nM): 0.967 ± 0.15 | surviving fraction ([7]; 10 nM): 0.838 ± 0.22 | surviving fraction ([7]; 50 nM): 0.66 ± 0.27 | surviving fraction ([7]; 100 nM): 0.505 ± 0.18 | surviving fraction ([7]; 500 nM): 0.274 ± 0.049 | surviving fraction ([7]; 1000 nM): 0.341 ± 0.054 | surviving fraction ([8]; 0.5 nM): 1.28 ± 0.11 | surviving fraction ([8]; 1 nM): 1.25 ± 0.14 | surviving fraction ([8]; 5 nM): 1.32 ± 0.35 | surviving fraction ([8]; 10 nM): 1.3 ± 0.28 | surviving fraction ([8]; 50 nM): 1.32 ± 0.14 | surviving fraction ([8]; 100 nM): 1.78 ± 0.35 | surviving fraction ([8]; 500 nM): 1.2 ± 0.19 | surviving fraction ([8]; 1000 nM): 1.24 ± 0.067 | area under dose-response curve [10]: 2.33 | area under dose-response curve [12]: 1.68 | area under dose-response curve [13]: 1.39 | area under dose-response curve [14]: 2.24 | area under dose-response curve [15]: 4.41
